Patent US10059955B2, “Hibiscus cannabinus feruloyl-CoA:monolignol transferase” (Wisconsin Alumni Research Foundation (WARF), priority 2011, dated 2018)
Entries after “also recorded” stand apart in the source; their conditions may differ.

Legend:
[1] = tested on: feruloyl-CoA:monolignol transferase from Angelica sinensis; assay: FMT enzymatic assay with purified recombinant Angelica sinensis FMT (UPLC detection of product); format: biochemical; settings: for product formed from acyl-CoA donor substrate: coniferyl alcohol as acceptor, FIGS. 2, 6, 7; for enzyme activity with monolignol as acyl acceptor substrate: feruloyl-CoA as acyl donor, FIGS. 2, 4, 5
Description: The feruloyl-CoA, p-coumaroyl-CoA, and caffeoyl-CoA substrates used in the FMT assay were enzymatically synthesized using the tobacco 4-coumarate-CoA-ligase (4CL) with a c-terminal HIS tag in pCRT7/CT TOPO, provided by Eran Pichersky. Following a method modified from Beuerle and Pichersky (Anal. Biochem. 302(2): 305-12 (2001)) 3.3 mg of ferulic acid, coumaric acid or caffeic acid, 2 mg coenzyme A, and 6.9 mg ATP were added to 50 mM Tris-hydrochloride pH 8 and 2.5 mM magnesium chloride in a final volume of 10 ml. The reaction was started by adding 0.25 mg 4CL, protein purified as described by the method of Beurerle and Pichershy. After a five-hour incubation at room temperature, additional 6.9 mg ATP, 2 mg coenzyme A, and 0.25 mg purified 4CL were added and the reaction was incubated overnight. The CoA esters were purified on an SPE cartridge as described in Beuerle and Pichersky (2001).
(§1) The FMT activity assay contained 100 mM MOPS pH 6.8, 1 mM dithiothreitol (DTT), 1 mM feruloyl-CoA, 1 mM coniferyl alcohol, 3.9 μg of purified FMT protein and deionized water to a volume of 50 μL. After a 30-minute incubation, 1 μL of 10 M hydrochloric acid was added to stop the reaction. Because the product synthesized in the reaction, coniferyl ferulate (CAFA), is insoluble, 50 μL of methanol was added to solubilize the CAFA. Prior to UPLC, protein and insoluble material were removed by filtering through an Amicon Ultracel 10K membrane filter (Millipore). The flow-through was analyzed using an Acquity Ultra Performance LC with an Acquity UPLC BEH C18 1.7 μm 2.1×100 mm column and the Acquity Console and Empower 2 Software, all from Waters Corporation. The solvents used in this method were solvent A, 0.1% trifluoroacetic acid, and solvent B, 100% acetonitrile. Samples were analyzed using the following gradient conditions, 13% B, for 5 minutes, 1 minute linear gradient to 42% B, held for 4 minutes, 1 minute linear gradient to 100% B, held for 1 minutes and 3 minutes at 13% B with a flow rate of 0.3 ml/minute. This method was then used to analyze a 10 μL injection of each assay reaction; standards for each of the substrates along with chemically synthesized CAFA were used to determine retention times for each compound.
Purified recombinant enzyme was assayed for FMT activity using a reaction mixture containing 2 mM coniferyl alcohol, […], 100 mM HEPES pH 7.4 and 1 mM DTT. The second most abundant BAHD acyltransferase gene when incubated with Coniferyl alcohol and feruloyl-CoA produced a compound with the retention time of authentic coniferyl ferulate (CAFA) (FIG. 2). […] The addition of methanol to 50% after stopping the enzyme with acid was required to analyze the product by UPLC. The insolubility of the product made partial purification easy as the product was separated from the substrates by centrifugation.

[2] = Solubility of the assay product coniferyl ferulate in the aqueous reaction mixture; format: physicochemical; settings: before addition of methanol to 50%
Description: as §1, with “compound. […]” for “compound.”

[3] = tested on: Angelica sinensis feruloyl-CoA:monolignol transferase; assay: FMT enzyme assay of transgenic Arabidopsis stems; format: biochemical; settings: none with empty vector, FIG. 11B
Excerpt: Arabidopsis were transformed by standard procedures with the Angelica sinensis feruloyl-CoA:monolignol transferase nucleic acids described herein. […] FMT expression was detected by Reverse Transcriptase PCR of […] isolated from the transgenic Arabidopsis leaves. Enzymatic activity by the expressed FMT was detected using the assay described in Example 1.

Angelica sinensis FMT = assay: FMT enzyme assay of transgenic poplar leaf extracts; format: biochemical; settings: extracts from transgenic hybrid poplar expressing YFP-FMT; none in wild type or no enzyme control; FIG. 10B
Excerpt: Hybrid poplar (Populus alba×grandidentata) was transformed using Agrobacterium tumefaciens EHA105 employing a common leaf disk inoculation. Two constructs were created to drive the expression of FMT in poplar: 1) 35S::YFP-FMT (cauliflower mosaic virus ubiquitous 35S promoter with an N-terminal tagged Yellow Fluorescent Protein), and 2) CesA8::YFP-FMT (poplar xylem-specific secondary cell wall specific cellulose synthase 8 promoter with an N-terminal tagged Yellow Fluorescent Protein). The binary plasmids were inserted into EHA105 using the freeze-thaw technique, and incubated overnight in liquid Woody Plant Media (WPM) supplemented with 100 μM acetosyringone. Leaf disks were cut and co-cultured with EHA105 for one hour at room temperature, blotted dry and plated abaxailly onto WPM supplemented with 0.1 μM each α-naphthalene acetic acid (NAA), 6-benzylaminopurine (BA), and thiadiazuron (TDZ) and solidified with 3% (w/v) agar and 1.1% (w/v) phytagel (WPM 0.1/0.1/0.1). […]
Purification of YFP-FMT was via GFPtrap_A (Chromotek) following the manufactures guidelines. […] These samples were analyzed by western blot and the UPLC method described in the Examples above. Formation of coniferyl ferulate was also detected by comparison of the UPLC traces of leaf extracts with authentic coniferyl ferulate.

Hibiscus cannabinus FMT = assay: FMT enzymatic assay with purified Kenaf FMT (UPLC detection of coniferyl ferulate); format: biochemical; settings: Ni2+ column fractions 29 and 30; 1 mM feruloyl CoA, 1 mM coniferyl alcohol, pH 6, 45 min; FIG. 12B
Description: The feruloyl CoA, p-coumaroyl CoA, and caffeoyl CoA substrates used in the FMT assay were enzymatically synthesized using the tobacco 4-coumarate CoA-ligase (4CL) with a c-terminal HIS tag in pCRT7/CT TOPO. Following a method modified from Beuerle and Pichersky (2001) 3.3 mg of ferulic acid, coumaric acid or caffeic acid, 2 mg coenzyme A, and 6.9 mg ATP were 50 mM Tris-hydrochloride pH 8, 2.5 mM magnesium chloride in a final volume of 10 ml. The reaction was started by adding 0.25 mg 4CL protein, purified as described by the method of Beurerle and Pichershy. After a five-hour incubation at room temperature, an additional 6.9 mg ATP, 2 mg coenzyme A, and 0.25 mg purified 4CL were added and the reaction was incubated overnight. […]
The FMT activity assay contained 100 mM sodium phosphate buffer pH 6, 1 mM dithiothreitol (DTT), 1 mM feruloyl CoA, 1 mM coniferyl alcohol, 0.5 μg of purified Kenaf FMT protein and deionized water to a volume of 50 μLL. […] The flow-through was analyzed using an Acquity Ultra Performance LC with an Acquity UPLC BEH C18 1.7 μm 2.1×100 mm column and the Acquity Console and Empower 2 Software, all from Waters Corporation. […] Samples were analyzed using the following gradient conditions, 13% B, for 5 minutes, 1 minute linear gradient to 42% B, held for 4 minutes, 1 minute linear gradient to 100% B, held for 1 minute and 3 minutes at 13% B with a flow rate of 0.3 ml/minute. […]

CC(C)(COP(=O)(O)OP(=O)(O)OC[C@H]1O[C@@H](n2cnc3c(N)ncnc32)[C@H](O)[C@@H]1OP(=O)(O)O)[C@@H](O)C(=O)NCCC(=O)NCCSC(=O)/C=C/c1ccc(O)c(O)c1 [caffeoyl-CoA]
product formed from acyl-CoA donor substrate [1]: very little product

COc1cc(/C=C/CO)ccc1O [coniferyl alcohol]
enzyme activity with monolignol as acyl acceptor substrate [1]: active

COc1cc(/C=C/COC(=O)/C=C/c2ccc(O)c(OC)c2)ccc1O [coniferyl ferulate]
solubility of product in water / assay mixture [2]: mostly insoluble in water; also recorded: partially insoluble

COc1cc(/C=C/C(=O)SCCNC(=O)CCNC(=O)[C@H](O)C(C)(C)COP(=O)(O)OP(=O)(O)OC[C@H]2O[C@@H](n3cnc4c(N)ncnc43)[C@H](O)[C@@H]2OP(=O)(O)O)ccc1O [feruloyl-CoA]
product formed from acyl-CoA donor substrate [1]: substantial product

CC(C)(COP(=O)(O)OP(=O)(O)OC[C@H]1O[C@@H](n2cnc3c(N)ncnc32)[C@H](O)[C@@H]1OP(=O)(O)O)[C@@H](O)C(=O)NCCC(=O)NCCSC(=O)/C=C/c1ccc(O)cc1 [p-coumaroyl-CoA]
product formed from acyl-CoA donor substrate [1]: very little product

OC/C=C/c1ccc(O)cc1 [p-coumaryl alcohol]
enzyme activity with monolignol as acyl acceptor substrate [1]: active

COc1cc(/C=C/CO)cc(OC)c1O [sinapyl alcohol]
enzyme activity with monolignol as acyl acceptor substrate [1]: active

B1: Angelica sinensis FMT: Angelica sinensis clone Dq155 pdest17 feruloyl-CoA:monolignol transferase enzyme, SEQ ID NO:2 (protein)
chain: MTIMEVQVVSKKMVKPSVPTPDHHKTCKLTAFDQIAPPDQVPIIYFYNSSNIHNIREQLVKSLSETLTKFYPLAGRFVQDGFYVDCNDEGVLYVEAEVNIPLNEFIGQAKKNIQLINDLVPKKNFKDIHSYENPIVGLQMSYFKCGGLAICMYLSHVVADGYTAAAFTKEWSNTTNGIINGDQLVSSSPINFELATLVPARDLSTVIKPAVMPPSKIKETKVVTRRFLFDENAISAFKDHVIKSESVNRPTRVEVVTSVLWKALINQSKLPSSTLYFHLNFRGKTGINTPPLDNHFSLCGNFYTQVPTRFRGGNQTKQDLELHELVKLLRGKLRNTLKNCSEINTADGLFLEAASNFNIIQEDLEDEQVDVRIFTTLCRMPLYETEFGWGKPEWVTIPEMHLEIVFLLDTKCGTGIEALVSMDEADMLQFELDPTISAFAS
FMT activity in ground stems (coniferyl ferulate detected) [3]: enzymatically active | FMT activity in leaf extracts (product peak at retention time of authentic coniferyl ferulate) (Angelica sinensis FMT): FMT activity was identified

B2: Hibiscus cannabinus FMT: Hibiscus cannabinus (Kenaf) feruloyl-CoA:monolignol transferase enzyme, SEQ ID NO:9, expressed with N-terminal 6xHis tag in E. coli (protein)
chain: MATHSTIMFSVDRNDVVFVKPFKPTPSQVLSLSTIDNDPNLEIMCHTVFVYQANADFDVKPKDPASIIQEALSKLLVYYYPLAGKMKRETDGKLRIACTADDSVPFLVATADCKLSSLNHLDGIDVHTGKEFALDFASESDGGYYHPLVMQVTKFICGGFTIALSLSHSVCDGFGAAQIFQALTELASGRNEPSVKPVWERQLLVAKPAEEIPRSIVDKDLSAASPYLPTTDIVHACFYVTEESIKTLKMNLIKESKDESITSLEVLSAYIWRARFRALKLSPDKTTMLGMAVGIRRTVKPRLPEGYYGNAFTSANTAMTGKELDQGPLSKAVKQIKESKKLASENDYIWNLMSINEKLRELNSKFEAAAGSTMVITDWRRLGLLEDVDFGWKGSVNMIPLPWNMFGYVDLVLLLPPCKLDQSMKGGARVLVSFPTAAIAKFKEEMDALKHDNKVAGDALVI
modifications: N-terminal 6xHis tag
FMT activity: production of coniferyl ferulate from coniferyl alcohol and feruloyl-CoA (Hibiscus cannabinus FMT): production of coniferyl ferulate (3) is visible
